From paper PMC2813692 (Molecular cancer therapeutics, 2008)

Key:
[1] = test system: subjects of the Adenoma Prevention with Celecoxib Trial; settings: ref [32], cited from earlier work
[2] = Plasma pharmacokinetics by LC-MS/MS
[3] = test system: metastatic colorectal cancer; settings: second-line single-agent; ref [33]; cited from earlier work
[4] = capecitabine 1,000 mg/m^2 alone (run-in, Pre), mean ± SD in 8 patients
[5] = capecitabine 1,000 mg/m^2 in combination with 250 mg gefitinib, C1D1, mean ± SD in 8 patients

What does the source list for Cc1ccc(-c2cc(C(F)(F)F)nn2-c2ccc(S(N)(=O)=O)cc2)cc1 [celecoxib]?
subjects who experienced cardiovascular events ([1]; 35 of 1,356 subjects who received celecoxib): 2.6%; increase in risk of major fatal and nonfatal cardiovascular events ([1]; compared with placebo): 2.5 fold; steady-state plasma trough levels of celecoxib ([2]; across any of the doses tested (data not shown)): Neither capecitabine nor gefitinib affected

For COc1cc2ncnc(Nc3ccc(F)c(Cl)c3)c2cc1OCCCN1CCOCC1 [gefitinib], which “effect of capecitabine on the trough levels of gefitinib” value ([2]; across dose levels) is on record?
Its value is “did not affect”.

For CCCCCOC(=O)Nc1nc(=O)n([C@@H]2O[C@H](C)[C@@H](O)[C@H]2O)cc1F [capecitabine], which “effect of gefitinib on the AUC, Cmax, t1/2, and clearance of capecitabine” value ([2]; alone (run-in day) vs in combination with gefitinib (cycle 1 day 1)) is on record?
Its value is “no significant effects”.

What about the CL/F [2, 4] of the same molecule?
The CL/F was 272 ± 120 L/h.

And the t1/2λ [2, 4]?
Its t1/2λ is 0.93 ± 0.92 h.

And the CL/F [2, 5]?
Its CL/F is 300 ± 204 L/h.

And the t1/2λ [2, 5]?
The t1/2λ was 1.09 ± 0.80 h.

What about the Vd/F ([2]; human, plasma, oral, 1000 mg/m^2) of the same molecule?
Its Vd/F is 363 ± 364 L.

What about the AUC(0-inf) ([2]; human, plasma, oral, AUC0→∞, capecitabine 1,000 mg/m^2 in combination with 250 mg gefitinib, C1D1, mean ± SD in 8 patients) of the same molecule?
The AUC(0-inf) was 13.2 ± 8.1 µM·h.

Which response rate [3] does the source give for O=C1[O][Pt]2([NH][C@@H]3CCCC[C@H]3[NH]2)[O]C1=O [oxaliplatin] here?
Its response rate is 10%.
